Measurements as given in patent US4440769A, “2-(4-Phenylalkanoylpiperazin-1-yl) quinazoline compounds, pharmaceutical compositions and method of producing α1 antagonistic activity” (Abbott Laboratories, priority 1983, dated 1984).

How the values were obtained:
α1-adrenergic receptor [1] = assay: α1-adrenergic receptor selectivity and antagonism (general statements); conditions: result in words
α1-adrenergic receptor [2] = assay: radioligand binding, displacement of [3H] prazosin in rat brain cortex tissue; conditions: for Ki: [3H] prazosin, calculated from IC50; for KIα2/KIα1: ratio of KI values, α1 selectivity
[3] = tested on: spontaneously hypertensive rat (Okamoto rats); assay: arterial blood pressure in the spontaneously hypertensive rat (tail cuff); format: in vivo; conditions: oral, 30 or 100 mg./kg.
Description: An occluding cuff, operatively connected to a programmed sphygmomanometer, is placed over the tail of each rat of the group and retained near the tail base. […] A photocell is placed distal to the cuff to detect pulses resulting from the forward motion of blood flow with each heartbeat of the rat. As the pressure in the cuff increases, measurable pulses disappear at the point where the cuff pressure equals the arterial blood pressure. Measurable pulses reappear during deflation at approximately the same pressure, and arterial blood pressure is thereby established by cuff pressure at the point of pulse appearance. The heart rate is determined from the arterial pulse wave. Doses of 30 or 100 mg./kg. of the preferred compound of Example II are administered orally to each rat of the test groups and five interference-free signals are recorded on a Model 7 Grass polygraph for each rat at various measurement periods following administration.

α-adrenergic receptor = α-adrenergic receptor antagonistic activity in the isolated rabbit aorta (norepinephrine-induced contraction); format: cell-based; conditions: for pA2: norepinephrine agonist, 37±0.5° C., pH 7.4, negative log of concentration requiring doubled norepinephrine
Procedure: Female rabbits, weighing 2 to 5 kg., are sacrificed by cervical dislocation. […] The aorta is placed on cylindrical sticks and cleaned of excess fat and connective tissue, then cut into 2 tissue segments approximately 20 mm in length. Each segment of aorta is then spiraled in strips 3.5 mm wide by turning the stick as a scapel is applied, while leaving a section of 2-3 mm at each end of the aorta section intact. The spiraled tissue is mounted in an aerated (as above) tissue bath of 10 ml. of Kreb's buffer and is attached to a Grass force transducer with an initial applied tension of 2 grams. The tissue is allowed to equilibrate in the tissue bath at a temperature of 37±0.5° C. until the tension on the force transducer stabilizes at 2 grams. A cumulative dose-response curve of contraction for the tissue is determined by contacting the tissue with 10 to 400 ul of the standard agonist norepinephrine in log doses of from 1×10^-8 to 1×10^-3M. […] The degree of antagonistic activity is determined by varying the concentration of the test compound and measuring its pA2 value, i.e., the negative log of the concentration of the test compound required to inhibit the norepinephrine response to the extent that the norepinephrine concentration must be doubled to obtain the maximum standard norepinephrine contractile response of the tissue.

α2-adrenergic receptor = target: T1, α2-adrenergic receptor (Rattus norvegicus, UniProt P22909); assay: biochemical; format: binding; conditions: rat brain cortex, [3H] yohimbine; calculated from IC50
T1 sequence (P22909 1-465): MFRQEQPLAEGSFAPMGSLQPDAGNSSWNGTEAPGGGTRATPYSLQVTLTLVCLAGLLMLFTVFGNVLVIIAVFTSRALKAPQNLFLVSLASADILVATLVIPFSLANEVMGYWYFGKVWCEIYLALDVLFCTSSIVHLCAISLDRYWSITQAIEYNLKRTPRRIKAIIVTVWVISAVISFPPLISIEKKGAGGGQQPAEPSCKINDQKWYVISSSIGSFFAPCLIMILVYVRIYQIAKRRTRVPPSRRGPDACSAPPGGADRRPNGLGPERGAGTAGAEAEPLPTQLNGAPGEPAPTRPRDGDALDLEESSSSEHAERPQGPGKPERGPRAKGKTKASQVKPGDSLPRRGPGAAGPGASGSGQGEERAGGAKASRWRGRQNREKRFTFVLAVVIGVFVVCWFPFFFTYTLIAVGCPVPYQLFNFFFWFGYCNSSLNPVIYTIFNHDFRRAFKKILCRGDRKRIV

α1-adrenergic receptor [4] = conditions: Federation Proceedings, Vol. 41, No. 5, Abst. No. 7064; cited from earlier work

| α1-antagonism (α1-adrenergic receptor [1]) | Ki (α1-adrenergic receptor [2]) | KIα2/KIα1 (α1-adrenergic receptor [2]) | Ki (α2-adrenergic receptor) | Structure (SMILES) | selectivity for α1-adrenergic receptor sites (α1-adrenergic receptor [1]) | decrease of arterial blood pressure [3] | pA2 (α-adrenergic receptor) | inhibition of increase in contractile force produced by norepinephrine (α-adrenergic receptor; result in words) | α1-adrenergic receptor inhibition upon photolysis (α1-adrenergic receptor [4]) |
| --- | --- | --- | --- | --- | --- | --- | --- | --- | --- |
| produce α1 -antagonism |  |  |  | COc1cc2nc(N3CCN(C(=O)CCCCc4ccc(N=[N+]=[N-])cc4)CC3)nc(N)c2cc1OC [4-azidophenyl analog, 4-amino-6,7-dimethoxy-2-[4-(5-[4-azidophenyl]pentanoyl)-1-piperazinyl] quinazoline] | high degree of selectivity for α1 -adrenergic receptor sites |  |  |  |  |
| produce α1 -antagonism | 4.5 nM | 1,094.5 | 4930 nM | COc1cc2nc(N3CCN(C(=O)CCCCc4ccc(N)cc4)CC3)nc(N)c2cc1OC.Cl.Cl [Example II, 4-amino-6,7-dimethoxy-2-[4-(5-[4-aminophenyl]pentanoyl)-1-piperazinyl] quinazoline dihydrochloride] | high degree of selectivity for α1 -adrenergic receptor sites | decrease the arterial blood pressure of rats of each group | 7.51 | inhibited |  |
|  | 17 nM | 730.9 | 12400 nM | COc1cc2nc(N3CCN(C(=O)c4ccc(N)cc4)CC3)nc(N)c2cc1OC [C, 2-(4-[4-aminobenzoyl]piperazin-1-yl)-4-amino-6,7-dimethoxyquinazoline, reference compound] |  |  | 7.45 |  |  |
|  |  |  |  | COc1cc2nc(N3CCN(C(=O)c4ccc(N=[N+]=[N-])cc4)CC3)nc(N)c2cc1OC [2-(4-[4-azido-benzoyl]-piperazin-1-yl)-4-amino-6,7-dimethoxyquinazoline] |  |  |  |  | irreversible non-competitive α1 -adrenergic receptor inhibition |
|  |  |  |  | COc1cc2nc(N3CCN(C(=O)c4ccco4)CC3)nc(N)c2cc1OC [prazosin, reference compound] |  |  | 8.58 |  |  |
